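Method: 48-hour compound exposure of cells in 96-well plates, five concentrations, linear interpolation of endpoints. At the TGI there is no net growth.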
What was measured:
Test in all cases: NCI-60 cell line screen, 48 h
SF-539 CNS = system: SF-539 CNS
MDA-N = system: MDA-N
SN12C renal = system: SN12C renal
NCI-H226 lung = system: NCI-H226 lung
LOX IMVI melanoma = system: LOX IMVI melanoma
HOP-62 NSCLC = system: HOP-62 NSCLC
OVCAR-3 ovarian = system: OVCAR-3 ovarian
NCI-H460 lung = system: NCI-H460 lung
ACHN renal = system: ACHN renal
UO-31 renal = system: UO-31 renal

| SMILES | TGI (SF-539 CNS) | TGI (MDA-N) | TGI (SN12C renal) | TGI (NCI-H226 lung) | TGI (LOX IMVI melanoma) | TGI (HOP-62 NSCLC) | TGI (OVCAR-3 ovarian) | TGI (NCI-H460 lung) | TGI (ACHN renal) | TGI (UO-31 renal) |
| --- | --- | --- | --- | --- | --- | --- | --- | --- | --- | --- |
| Cc1cc2ccccc2n1CC(=O)N1CCCC1 | > 100 µM | > 100 µM | > 100 µM | > 100 µM | > 100 µM | > 100 µM | > 100 µM | > 100 µM | > 100 µM | > 100 µM |
| O=c1[nH]c2cc3cccnc3c(Cl)c2nc1C(F)(F)F | > 100 µM | > 100 µM | > 100 µM | > 100 µM | > 100 µM | > 100 µM | > 100 µM | > 100 µM | > 100 µM | > 100 µM |
| Cc1cc(Nc2ccc(N=Nc3ccc(O)c4ncccc34)cc2)nc(C)n1 | 20.6 µM | 42.8 µM | > 88.2 µM | 44.1 µM | 43.8 µM | > 69.6 µM | > 29.5 µM | 38 µM | > 77.9 µM | 36.5 µM |
| CC(C)(C)n1c(=O)n(C(=O)C(Cl)(Cl)Cl)n(C(=O)C(Cl)(Cl)Cl)c1=O | > 100 µM | > 100 µM | > 100 µM | > 100 µM | > 100 µM | > 100 µM | > 100 µM | > 100 µM | > 100 µM | > 100 µM |
| COc1ccc(C(=C(I)c2ccccc2)c2ccc(OC)cc2)cc1 | > 100 µM | > 100 µM | > 100 µM | > 100 µM | > 100 µM | > 100 µM | > 100 µM | > 100 µM | > 100 µM | > 100 µM |
| CCOC(=O)C1=C(C)C(C(=O)OC)/C(=C/c2cccc3cccnc23)C1=O (stereo not given) | > 10 µM | > 10 µM | > 10 µM | > 10 µM | > 10 µM | > 10 µM | > 10 µM | > 10 µM | > 10 µM | > 10 µM |
| CC1CC[C@@]2(OC1)O[C@H]1C[C@H]3[C@@H]4CC[C@H]5C[C@@H](OC6OC(CO)C(OC7OC(CO)C(OC8OC(CO)C(O)C(OC9OC(C)C(OC%10OC(C)C(O)C(O)C%10O)C(O)C9O)C8OC8OCC(O)C(O)C8O)C(O)C7O)C(O)C6O)CC[C@]5(C)[C@H]4CC(=O)[C@]3(C)[C@H]1[C@@H]2C (stereo not given in full) | 28.5 µM | 39.4 µM | 40.9 µM | 35.5 µM | 53.5 µM | 45.5 µM | 42.3 µM | 32.9 µM | 30.9 µM | 44.5 µM |
| OCC(Cn1cncn1)(c1ccc(F)cc1F)n1cncn1 (stereo not given) | > 100 µM | > 100 µM | > 100 µM | > 100 µM | > 100 µM | > 100 µM | > 100 µM | > 100 µM | > 100 µM | > 100 µM |
| Cc1ccc(C)c(COCCOCn2cc(Br)c(N)nc2=O)c1 | > 100 µM | > 100 µM | > 100 µM | > 100 µM | > 100 µM | > 100 µM | > 100 µM | > 100 µM | > 100 µM | > 100 µM |
| CC(NC(=O)OCc1ccccc1)NC(=O)C(CC(=O)OC(C)(C)C)NC(=O)OC(C)(C)C (stereo not given) | > 100 µM | > 100 µM | > 100 µM | > 100 µM | > 100 µM | > 100 µM | > 100 µM | > 100 µM | > 100 µM | > 100 µM |
| Nc1ccc(-c2nc3cc(F)ccc3s2)cc1I | 29.8 µM | > 100 µM | > 69.8 µM | 21 µM | > 100 µM | 33.6 µM | > 37.9 µM | 23.7 µM | 24.6 µM | > 65.2 µM |
| N#Cc1c(N2CCCC2)ncn(Cc2ccccc2)c1=S | > 100 µM | > 100 µM | > 100 µM | > 100 µM | > 100 µM | > 100 µM | > 100 µM | > 100 µM | > 100 µM | > 100 µM |
| COC(=O)c1ccccc1C#CCCCOS(C)(=O)=O | > 10 µM | > 10 µM | > 10 µM | > 10 µM | > 10 µM | > 10 µM | > 10 µM | > 10 µM | > 10 µM | > 10 µM |
| CC(C)(C)OC(=O)NC(Cc1ccc(O)cn1)C(N)=O (stereo not given) | > 100 µM | > 100 µM | > 100 µM | > 100 µM | > 100 µM | > 100 µM | > 100 µM | > 100 µM | > 100 µM | > 100 µM |
| C=CC(C)(C)N[C@@H](C(=O)N1CCC[C@H]1c1nc(-c2nc(C(=O)OCC=C(C)C)c(C)o2)c(C)o1)C(C)C | 38.3 µM | 38.4 µM | 39.2 µM | 35.6 µM | > 100 µM | 51.7 µM | 59.5 µM | 51.1 µM | 88.3 µM | 38.3 µM |
| Cc1cc(=O)n2nc(CSc3nnc(N)s3)sc2n1 | > 100 µM | > 100 µM | > 100 µM | > 100 µM | > 100 µM | > 100 µM | > 100 µM | > 100 µM | > 100 µM | > 100 µM |
| COc1ccc(/C=C2\CC3C4CC=C5C[C@@H](O)CC[C@]5(C)C4CC[C@]3(C)\C2=N\O)cc1OC (stereo not given in full) | > 100 µM | > 100 µM | > 100 µM | > 100 µM | > 100 µM | > 100 µM | 8.74 µM | > 100 µM | 36.9 µM | 9.97 µM |

| SMILES | TGI (SF-539 CNS) | TGI (MDA-N) | TGI (SN12C renal) | TGI (NCI-H226 lung) | TGI (LOX IMVI melanoma) | TGI (HOP-62 NSCLC) | TGI (OVCAR-3 ovarian) | TGI (NCI-H460 lung) | TGI (ACHN renal) | TGI (UO-31 renal) |
| --- | --- | --- | --- | --- | --- | --- | --- | --- | --- | --- |
| Cc1cc(N=Cc2c(CO)cnc(C)c2O)c(N=Cc2c(CO)cnc(C)c2O)cc1C.[Zn] | > 100 µM | > 100 µM | > 100 µM | > 100 µM | > 100 µM | > 100 µM | > 100 µM | > 100 µM | > 100 µM | > 100 µM |
| COC(=O)/C=C\C(C#N)(C#N)N=Cc1ccc(C)s1 | 10.1 µM | 6.94 µM | 5.91 µM | 31.4 µM | 3.19 µM | 28.5 µM | 9.81 µM | 40.7 µM | 3.66 µM | 3.53 µM |
| O=C(NNc1cn[nH]c(=O)c1Cl)/C(=C/c1ccc2c(c1)OCO2)NC(=O)c1ccccc1 | > 100 µM | > 100 µM | > 100 µM | > 100 µM | > 100 µM | > 100 µM | > 100 µM | > 100 µM | > 100 µM | > 100 µM |
| O=C1OC2(C(F)(F)F)Oc3ccccc3CN2C12CCCCC2 (stereo not given) | > 100 µM | > 100 µM | > 100 µM | 90.8 µM | 52.7 µM | 91.9 µM | > 100 µM | 66.4 µM | 38.1 µM | 84.3 µM |
| COc1ccc(/C=C(\C(=C/c2ccc(OC)cc2)[N+](=O)[O-])[N+](=O)[O-])cc1 | 5.71 µM | 8.89 µM | 10.1 µM | 33 µM | 5 µM | 21.2 µM | 71.4 µM | 12.2 µM | 17.1 µM | 16.7 µM |
| O=C(c1ccccc1)c1c(C(F)(F)F)n([O-])c2cc(Cl)c(Cl)cc2[n+]1=O | 3.88 µM | 4.17 µM | 1.87 µM | 13.7 µM | 2.46 µM | 0.909 µM | 0.815 µM | 4.53 µM | 2.03 µM | 4.21 µM |
| O=c1[nH]c2ccccc2nc1/C=C(\O)C(F)F | > 100 µM | > 100 µM | > 100 µM | > 100 µM | > 100 µM | > 100 µM | > 100 µM | > 100 µM | > 100 µM | > 100 µM |
| COC(=O)c1ccc(CCc2cc(O)ccc2O)cc1 | 19.6 µM | 20.5 µM | 29.3 µM | 38.6 µM | 22.7 µM | 48.6 µM | 12.1 µM | > 68.4 µM | 37.9 µM | 7.04 µM |
| CCOP(=O)(OCC)/C(=C\N1C(=O)CC(=O)NC1=S)C(=O)OC | > 100 µM | > 100 µM | > 100 µM | > 100 µM | > 100 µM | > 100 µM | > 100 µM | > 100 µM | > 100 µM | > 100 µM |
| O=c1c2ccccc2n2nnc3ccc(NCCCNCCNCCCNc4ccc5nnn6c7ccccc7c(=O)c4c56)c1c32 | 8.46 µM | > 50 µM | 7.49 µM | 0.99 µM | 24 µM | 12.3 µM | 16.8 µM | 15.8 µM | > 18 µM | 19.5 µM |
| COc1ccc2c(c1)nc1n2C(N)=Nc2ccccc2S1 | > 100 µM | > 100 µM | > 100 µM | > 100 µM | > 72.8 µM | > 100 µM | 67.8 µM | > 100 µM | > 100 µM | > 100 µM |
| COc1cc(/C=C2\N=C(c3ccccc3)N(/N=C3\C(=O)Nc4ccccc43)C2=O)cc(OC)c1OC | > 100 µM | > 100 µM | > 100 µM | > 100 µM | > 100 µM | > 100 µM | > 100 µM | > 100 µM | > 100 µM | > 100 µM |
| CC(NC1=NCCO1)c1cccc([N+](=O)[O-])c1 (stereo not given) | > 100 µM | > 100 µM | > 100 µM | > 100 µM | > 100 µM | > 100 µM | > 100 µM | > 100 µM | > 100 µM | > 100 µM |
| N#CC(C#N)=Cc1c(O)ccc2ccccc12 | 29.1 µM | 30.5 µM | 27.3 µM | 50 µM | 26.6 µM | 50.2 µM | 27.4 µM | 36.7 µM | 23.9 µM | 28.5 µM |
| Cc1cc(NS(=O)(=O)c2ccc(NC(=O)c3cccc4c(NNc5ccc(S(=O)(=O)N=C(N)N)cc5)c5ccccc5nc34)cc2)no1 | > 100 µM | > 100 µM | > 100 µM | 98.5 µM | > 100 µM | > 100 µM | > 100 µM | > 100 µM | > 100 µM | > 100 µM |
| C=C1C(=O)O[C@H]2C/C(C)=C/CC/C(C)=C/CC[C@@](C)(O)[C@@H](I)C[C@@H]12 | 12.3 µM | 13.3 µM | 18.1 µM | 12.2 µM | 3.31 µM | 30.9 µM | 24.9 µM | 27.2 µM | 21.5 µM | 24.5 µM |
| O=C(OCCN1CCCCC1)C(c1ccccc1)C1(O)CCSCC1 (stereo not given) | > 100 µM | > 100 µM | > 100 µM | > 100 µM | > 100 µM | > 100 µM | > 100 µM | > 100 µM | > 100 µM | > 100 µM |
